US5098826A, “Detection, isolation and purification of Clostridium difficile toxin A with toxin receptors” (Virginia Tech Intellectual Properties, Inc., priority 1990, dated 1992)

Assays:
[1] = target: toxin A (Clostridioides difficile, UniProt P16154); conditions: cited from earlier work; for toxin A binding: Krivan et al., U.S. Pat. No. 4,863,852, Clark et al.
[2] = target: T1, C. difficile toxin A (Clostridioides difficile, UniProt P16154); test: Crossed immunoelectrophoresis (X-IEP) toxin A binding assay; parameters: species or system Clostridium difficile; conditions: 100 μg toxin A mixed with 500 μg/ml conjugate, on ice 10 minutes, electrophoresis at 4° C., pH 8.6
T1 construct: The organism was cultured, and the toxin A was purified from the culture filtrate; made in house; host or cells: C. difficile VPI strain 10463 (natural producer, culture filtrate; not recombinant)
Description: 100 μg toxin A and 500 μg/ml of each of the oligosaccharide-HSA conjugates of Table 1 in PBS were mixed and incubated on ice for 10 minutes, then 5 μl of this mixture was assayed by X-IEP for toxin A binding on a 5×5 cm glass slide substantially as described by Lyerly et al., J. Clin. Microbiol. 17, 72-78 (1983). Briefly, wells (1 mm in diameter) were cut in gels composed of 1.2% (wt/vol) low electroendosmotic agarose (Sigma Chemical Co.) in 0.025M Tris-Tricine buffer (0.6 g agarose in 50 ml buffer) (pH 8.6). The Tris-Tricine buffer is prepared by combining the following and adding deionized water up to a volume of 1 L: Tris, 9.8 g; Ca-lactate, 0.106 g; Tricine, 4.3 g; NaN3, 0.2 g. For the first dimension, oligosaccharide-HSA sample (5 μl) was placed in a sample well in the lower corner of the plate. 0.1% bromphenol blue was placed in an upper corner well as a tracing dye, and the plate was subjected to electrophoresis at 10 V/cm at constant current and 4° C. The second dimension of the plate consisted of a 1.2% (wt/vol) agarose gel containing 0.1 ml of goat antiserum to C. difficile culture filtrate. Electrophoresis was performed at 10 V/cm for about 3 hours at 4° C. Gels were washed in 20 mM sodium phosphate with 130 mM NaCl, pH 7.4, stained with a staining solution (5 g Coomassie Blue R-250, 450 ml EtOH, […], and 450 ml deionized H2 O), and de-stained in the staining solution minus Coomassie Blue.
The principle behind the X-IEP assay is that the rate of migration of toxin A in an electric field is dependent on the net charge of the molecule, which is dependant on its isoelectric point and the pH of the electrophoresis medium. Toxin A has a slight negative charge at pH 8.6, which is the pH at which the X-IEP was carried out. The toxin migrates slowly in the applied electric field. HSA, on the other hand, has a relatively high net negative charge at pH 8.6. […]

Sequence of toxin A (P16154 whole entry, looked up): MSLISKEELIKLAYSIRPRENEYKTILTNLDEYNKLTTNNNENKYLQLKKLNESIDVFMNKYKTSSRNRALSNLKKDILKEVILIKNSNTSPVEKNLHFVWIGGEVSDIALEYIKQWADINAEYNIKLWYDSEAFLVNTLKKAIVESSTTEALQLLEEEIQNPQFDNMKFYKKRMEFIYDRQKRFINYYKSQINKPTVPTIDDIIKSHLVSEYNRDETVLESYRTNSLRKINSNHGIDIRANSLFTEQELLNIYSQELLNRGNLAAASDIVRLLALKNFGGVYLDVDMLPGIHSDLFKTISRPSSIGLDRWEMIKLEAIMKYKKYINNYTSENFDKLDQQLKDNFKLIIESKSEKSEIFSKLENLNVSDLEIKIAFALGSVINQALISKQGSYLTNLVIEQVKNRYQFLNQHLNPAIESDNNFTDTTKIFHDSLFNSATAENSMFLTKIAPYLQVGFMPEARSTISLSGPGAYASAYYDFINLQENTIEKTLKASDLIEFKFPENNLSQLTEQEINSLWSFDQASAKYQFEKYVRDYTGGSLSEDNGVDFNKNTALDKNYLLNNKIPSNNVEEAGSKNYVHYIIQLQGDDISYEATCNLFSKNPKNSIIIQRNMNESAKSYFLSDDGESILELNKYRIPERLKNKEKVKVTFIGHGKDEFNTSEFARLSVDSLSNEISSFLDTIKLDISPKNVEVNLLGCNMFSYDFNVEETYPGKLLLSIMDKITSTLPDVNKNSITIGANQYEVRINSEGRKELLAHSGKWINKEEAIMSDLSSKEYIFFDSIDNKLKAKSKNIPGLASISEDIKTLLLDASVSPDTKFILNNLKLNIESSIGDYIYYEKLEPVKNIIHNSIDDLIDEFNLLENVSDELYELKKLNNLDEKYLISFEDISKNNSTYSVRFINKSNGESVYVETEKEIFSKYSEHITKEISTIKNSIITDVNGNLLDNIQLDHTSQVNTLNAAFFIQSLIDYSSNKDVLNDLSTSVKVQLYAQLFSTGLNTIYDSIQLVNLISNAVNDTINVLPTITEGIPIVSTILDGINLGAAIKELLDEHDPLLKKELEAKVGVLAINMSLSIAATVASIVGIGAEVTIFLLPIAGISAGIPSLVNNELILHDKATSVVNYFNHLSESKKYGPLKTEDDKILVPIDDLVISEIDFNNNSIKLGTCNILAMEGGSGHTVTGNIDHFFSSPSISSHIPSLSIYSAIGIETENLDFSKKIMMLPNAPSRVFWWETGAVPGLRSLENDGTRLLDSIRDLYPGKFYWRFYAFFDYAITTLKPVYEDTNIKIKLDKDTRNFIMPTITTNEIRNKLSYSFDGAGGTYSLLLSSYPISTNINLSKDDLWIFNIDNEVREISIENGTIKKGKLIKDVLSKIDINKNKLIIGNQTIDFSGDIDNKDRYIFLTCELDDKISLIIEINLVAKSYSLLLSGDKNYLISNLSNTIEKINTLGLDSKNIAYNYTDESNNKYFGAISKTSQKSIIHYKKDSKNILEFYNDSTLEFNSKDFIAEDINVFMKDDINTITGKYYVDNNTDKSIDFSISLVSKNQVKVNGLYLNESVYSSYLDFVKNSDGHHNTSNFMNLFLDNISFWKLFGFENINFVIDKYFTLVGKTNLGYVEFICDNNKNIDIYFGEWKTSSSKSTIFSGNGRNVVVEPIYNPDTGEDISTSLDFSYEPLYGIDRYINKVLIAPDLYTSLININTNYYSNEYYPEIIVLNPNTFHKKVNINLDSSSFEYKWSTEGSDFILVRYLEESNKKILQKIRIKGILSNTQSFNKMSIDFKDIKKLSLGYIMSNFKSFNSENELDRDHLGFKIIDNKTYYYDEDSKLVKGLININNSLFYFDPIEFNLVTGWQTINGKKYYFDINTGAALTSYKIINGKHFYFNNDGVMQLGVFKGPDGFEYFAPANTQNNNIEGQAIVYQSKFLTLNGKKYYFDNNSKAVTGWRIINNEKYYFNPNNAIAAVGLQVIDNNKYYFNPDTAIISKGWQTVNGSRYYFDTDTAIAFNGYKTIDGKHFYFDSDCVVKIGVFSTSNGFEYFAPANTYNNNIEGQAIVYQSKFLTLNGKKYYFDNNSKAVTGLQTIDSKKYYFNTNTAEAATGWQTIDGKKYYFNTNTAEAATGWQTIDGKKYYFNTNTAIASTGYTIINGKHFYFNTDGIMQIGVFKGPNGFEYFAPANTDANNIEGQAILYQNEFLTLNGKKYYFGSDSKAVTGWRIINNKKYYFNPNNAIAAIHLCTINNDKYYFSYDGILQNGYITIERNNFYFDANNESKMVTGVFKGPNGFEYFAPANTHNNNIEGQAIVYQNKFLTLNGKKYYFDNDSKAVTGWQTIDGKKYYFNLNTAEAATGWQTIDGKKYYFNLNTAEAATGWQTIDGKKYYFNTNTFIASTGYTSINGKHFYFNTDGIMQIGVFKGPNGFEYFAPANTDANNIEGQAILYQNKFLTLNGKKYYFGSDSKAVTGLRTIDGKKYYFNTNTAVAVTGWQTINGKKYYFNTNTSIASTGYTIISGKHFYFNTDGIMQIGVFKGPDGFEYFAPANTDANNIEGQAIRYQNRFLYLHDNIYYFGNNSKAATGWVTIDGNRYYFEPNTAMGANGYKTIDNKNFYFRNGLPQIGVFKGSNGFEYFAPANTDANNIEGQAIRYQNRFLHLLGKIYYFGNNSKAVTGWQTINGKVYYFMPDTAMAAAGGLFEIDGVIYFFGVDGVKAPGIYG

CC(=O)N[C@H]1C(O)O[C@H](CO)[C@@H](O[C@@H]2O[C@H](CO)[C@H](O)[C@H](O[C@H]3O[C@H](CO)[C@H](O)[C@H](O)[C@H]3O)[C@H]2O[C@@H]2O[C@@H](C)[C@@H](O)[C@@H](O)[C@@H]2O)[C@@H]1O (some centres unmarked) [Galα(1→3)[Fucα-(1→2)]Galβ(1→4)GlcNAc, Galα(1→3)[Fucα(1→2)]Galβ(1→4)GlcNAc]
toxin A binding [1]: does not bind

Secretory Component: human protein known to contain the X antigen
Toxin A Binding X-IEP (altered migration of toxin A) ([2]; listed as SC): same behavior

CC(=O)N[C@H]1[C@H](O[C@H]2[C@@H](O)[C@@H](CO)O[C@@H](O[C@H]3[C@H](O)[C@@H](O)C(O)O[C@@H]3CO)[C@@H]2O)O[C@H](CO)[C@@H](O[C@@H]2O[C@H](CO)[C@H](O)[C@H](O)[C@H]2O)[C@@H]1O (some centres unmarked) [LNnT, Galβ(1→4)GlcNAcβ(1→3)Galβ(1→4)Glc]
toxin A binding [1]: prevents toxin A from binding | Toxin A Binding X-IEP (altered migration of toxin A) [2]: did not bind the toxin

CC(=O)N[C@H]1C(O)O[C@H](CO)[C@@H](O[C@@H]2O[C@H](CO)[C@H](O)[C@H](O[C@H]3O[C@H](CO)[C@H](O)[C@H](O)[C@H]3O)[C@H]2O)[C@@H]1O (some centres unmarked) [Galα(1→3)Galβ(1→4)GlcNAc]
toxin A binding at 37° C. ([1]; 37° C., U.S. Pat. No. 4,863,852): not detected | toxin A binding [1]: binds | temperature of maximal binding of toxin A ([1]; U.S. Pat. No. 4,863,852): 4 °C

B1: Carcinoembryonic Antigen: human protein known to contain the X antigen (protein, UniProt P06731 35-685, looked up)
Cell adhesion molecule CEACAM5: KLTIESTPFNVAEGKEVLLLVHNLPQHLFGYSWYKGERVDGNRQIIGYVIGTQQATPGPAYSGREIIYPNASLLIQNIIQNDTGFYTLHVIKSDLVNEEATGQFRVYPELPKPSISSNNSKPVEDKDAVAFTCEPETQDATYLWWVNNQSLPVSPRLQLSNGNRTLTLFNVTRNDTASYKCETQNPVSARRSDSVILNVLYGPDAPTISPLNTSYRSGENLNLSCHAASNPPAQYSWFVNGTFQQSTQELFIPNITVNNSGSYTCQAHNSDTGLNRTTVTTITVYAEPPKPFITSNNSNPVEDEDAVALTCEPEIQNTTYLWWVNNQSLPVSPRLQLSNDNRTLTLLSVTRNDVGPYECGIQNELSVDHSDPVILNVLYGPDDPTISPSYTYYRPGVNLSLSCHAASNPPAQYSWLIDGNIQQHTQELFISNITEKNSGLYTCQANNSASGHSRTTVKTITVSAELPKPSISSNNSKPVEDKDAVAFTCEPEAQNTTYLWWVNGQSLPVSPRLQLSNGNRTLTLFNVTRNDARAYVCGIQNSVSANRSDPVTLDVLYGPDTPIISPPDSSYLSGANLNLSCHSASNPSPQYSWRINGIPQQHTQVLFIAKITPNNNGTYACFVSNLATGRNNSIVKSITVSASGTSPGLSA
Toxin A Binding X-IEP (altered migration of toxin A) ([2]; listed as CEA): same behavior
